Experimental data as given in ChEMBL document CHEMBL5678818, “Discovery of potent SOS1 inhibitors that block RAS activation via disruption of the RAS-SOS1 interaction” (Proc Natl Acad Sci U S A, 2019).

Columns and labels:
[1] = biological target: T1, Mitogen-activated protein kinase 15 (Homo sapiens) (UniProt Q8TD08); assay: Inhibition of ERK8 (unknown origin) assessed as residual activity at 100 nM by KINOMEscan analysis relative to control
T1 sequence (whole entry): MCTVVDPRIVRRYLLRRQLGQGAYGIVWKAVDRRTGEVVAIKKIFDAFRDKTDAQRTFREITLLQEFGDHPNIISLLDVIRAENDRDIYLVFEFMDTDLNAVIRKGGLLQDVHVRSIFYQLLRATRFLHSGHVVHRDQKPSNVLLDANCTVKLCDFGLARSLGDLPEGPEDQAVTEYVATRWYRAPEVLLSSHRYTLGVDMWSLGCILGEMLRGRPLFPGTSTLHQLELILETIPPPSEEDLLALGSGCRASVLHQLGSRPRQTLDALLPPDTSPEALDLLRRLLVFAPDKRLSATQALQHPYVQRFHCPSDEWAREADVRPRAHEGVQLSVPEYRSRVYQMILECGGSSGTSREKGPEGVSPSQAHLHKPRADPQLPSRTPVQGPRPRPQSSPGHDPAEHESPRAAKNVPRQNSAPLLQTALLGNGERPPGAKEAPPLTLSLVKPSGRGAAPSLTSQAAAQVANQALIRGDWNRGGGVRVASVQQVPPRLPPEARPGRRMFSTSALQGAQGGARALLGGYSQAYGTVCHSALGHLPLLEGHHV

[2] = species: Homo sapiens; assay: Inhibition of JNK2 (unknown origin) assessed as residual activity at 100 nM by KINOMEscan analysis relative to control
[3] = biological target: Serine/threonine-protein kinase PLK1 (Homo sapiens) (UniProt P53350); assay: Inhibition of PLK1 (unknown origin) assessed as residual activity at 100 nM by KINOMEscan analysis relative to control
Chain of Serine/threonine-protein kinase PLK1 (Homo sapiens) (P53350 whole entry): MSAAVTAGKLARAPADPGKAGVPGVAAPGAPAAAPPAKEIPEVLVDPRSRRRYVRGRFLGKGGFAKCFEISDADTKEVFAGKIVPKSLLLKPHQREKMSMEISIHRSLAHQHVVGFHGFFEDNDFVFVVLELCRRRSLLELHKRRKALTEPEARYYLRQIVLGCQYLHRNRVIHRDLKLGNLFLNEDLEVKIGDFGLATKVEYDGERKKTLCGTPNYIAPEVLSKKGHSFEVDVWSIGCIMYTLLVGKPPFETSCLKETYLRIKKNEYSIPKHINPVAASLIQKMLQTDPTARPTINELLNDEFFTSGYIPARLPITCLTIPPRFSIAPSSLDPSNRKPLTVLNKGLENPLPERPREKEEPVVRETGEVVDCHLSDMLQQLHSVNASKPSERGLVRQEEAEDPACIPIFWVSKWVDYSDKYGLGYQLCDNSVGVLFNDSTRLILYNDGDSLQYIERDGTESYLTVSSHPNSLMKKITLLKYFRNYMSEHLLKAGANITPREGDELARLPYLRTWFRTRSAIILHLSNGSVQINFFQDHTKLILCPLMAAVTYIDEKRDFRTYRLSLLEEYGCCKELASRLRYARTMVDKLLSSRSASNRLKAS

[4] = biological target: T2, NUAK family SNF1-like kinase 2 (Homo sapiens) (UniProt Q9H093); assay: Inhibition of SNARK (unknown origin) assessed as residual activity at 100 nM by KINOMEscan analysis relative to control
T2 sequence (whole entry): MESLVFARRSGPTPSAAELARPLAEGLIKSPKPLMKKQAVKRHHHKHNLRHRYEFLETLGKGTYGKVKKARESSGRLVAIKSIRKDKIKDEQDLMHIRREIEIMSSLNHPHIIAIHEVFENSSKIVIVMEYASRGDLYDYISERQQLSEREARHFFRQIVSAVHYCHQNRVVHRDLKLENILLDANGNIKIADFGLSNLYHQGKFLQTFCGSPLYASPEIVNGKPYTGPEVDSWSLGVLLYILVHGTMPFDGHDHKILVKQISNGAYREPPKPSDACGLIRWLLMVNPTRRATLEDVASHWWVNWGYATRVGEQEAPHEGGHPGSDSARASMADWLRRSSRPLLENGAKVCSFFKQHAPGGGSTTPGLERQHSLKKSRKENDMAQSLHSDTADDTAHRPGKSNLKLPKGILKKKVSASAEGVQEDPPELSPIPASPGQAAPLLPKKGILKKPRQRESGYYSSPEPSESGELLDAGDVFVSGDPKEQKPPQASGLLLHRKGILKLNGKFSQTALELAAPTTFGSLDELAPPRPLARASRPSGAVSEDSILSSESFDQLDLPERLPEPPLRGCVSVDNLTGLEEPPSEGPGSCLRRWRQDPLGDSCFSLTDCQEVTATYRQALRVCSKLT

[5] = biological target: Serine/threonine-protein kinase RIO2 (Homo sapiens) (UniProt Q9BVS4); assay: Inhibition of RIOK2 (unknown origin) assessed as residual activity at 100 nM by KINOMEscan analysis relative to control
Chain of Serine/threonine-protein kinase RIO2 (Homo sapiens) (Q9BVS4 whole entry, looked up): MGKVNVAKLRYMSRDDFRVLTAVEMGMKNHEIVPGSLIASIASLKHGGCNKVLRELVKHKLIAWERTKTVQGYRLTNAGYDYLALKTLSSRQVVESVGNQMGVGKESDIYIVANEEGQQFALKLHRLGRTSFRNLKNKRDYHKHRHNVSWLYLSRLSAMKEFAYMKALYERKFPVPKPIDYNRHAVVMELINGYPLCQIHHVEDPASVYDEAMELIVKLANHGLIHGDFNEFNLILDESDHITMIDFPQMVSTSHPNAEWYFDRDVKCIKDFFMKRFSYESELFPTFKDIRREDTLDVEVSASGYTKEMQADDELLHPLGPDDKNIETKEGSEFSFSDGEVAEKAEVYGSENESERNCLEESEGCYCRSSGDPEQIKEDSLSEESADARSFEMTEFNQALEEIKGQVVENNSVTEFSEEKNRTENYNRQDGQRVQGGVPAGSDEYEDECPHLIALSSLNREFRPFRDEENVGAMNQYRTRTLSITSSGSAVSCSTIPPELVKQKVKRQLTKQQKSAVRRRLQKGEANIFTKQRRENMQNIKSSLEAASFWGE

[6] = biological target: Cyclin-dependent kinase 2 homolog (Plasmodium falciparum (isolate K1 / Thailand)) (UniProt Q07785); assay: Inhibition of Plasmodium falciparum PK5 assessed as residual activity at 100 nM by KINOMEscan analysis relative to control
Chain of Cyclin-dependent kinase 2 homolog (Plasmodium falciparum (isolate K1 / Thailand)) (Q07785 whole entry): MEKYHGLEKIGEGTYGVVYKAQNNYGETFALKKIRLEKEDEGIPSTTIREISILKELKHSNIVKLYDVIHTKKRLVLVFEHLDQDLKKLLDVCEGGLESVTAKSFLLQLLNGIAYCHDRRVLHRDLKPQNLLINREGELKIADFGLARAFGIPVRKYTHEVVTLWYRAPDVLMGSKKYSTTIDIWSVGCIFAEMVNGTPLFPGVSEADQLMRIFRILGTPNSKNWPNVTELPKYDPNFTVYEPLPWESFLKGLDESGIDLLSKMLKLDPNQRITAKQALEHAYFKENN

[7] = biological target: T3, Serine/threonine-protein kinase ULK1 (Homo sapiens) (UniProt O75385); assay: Inhibition of ULK1 (unknown origin) assessed as residual activity at 100 nM by KINOMEscan analysis relative to control
T3 sequence (whole entry): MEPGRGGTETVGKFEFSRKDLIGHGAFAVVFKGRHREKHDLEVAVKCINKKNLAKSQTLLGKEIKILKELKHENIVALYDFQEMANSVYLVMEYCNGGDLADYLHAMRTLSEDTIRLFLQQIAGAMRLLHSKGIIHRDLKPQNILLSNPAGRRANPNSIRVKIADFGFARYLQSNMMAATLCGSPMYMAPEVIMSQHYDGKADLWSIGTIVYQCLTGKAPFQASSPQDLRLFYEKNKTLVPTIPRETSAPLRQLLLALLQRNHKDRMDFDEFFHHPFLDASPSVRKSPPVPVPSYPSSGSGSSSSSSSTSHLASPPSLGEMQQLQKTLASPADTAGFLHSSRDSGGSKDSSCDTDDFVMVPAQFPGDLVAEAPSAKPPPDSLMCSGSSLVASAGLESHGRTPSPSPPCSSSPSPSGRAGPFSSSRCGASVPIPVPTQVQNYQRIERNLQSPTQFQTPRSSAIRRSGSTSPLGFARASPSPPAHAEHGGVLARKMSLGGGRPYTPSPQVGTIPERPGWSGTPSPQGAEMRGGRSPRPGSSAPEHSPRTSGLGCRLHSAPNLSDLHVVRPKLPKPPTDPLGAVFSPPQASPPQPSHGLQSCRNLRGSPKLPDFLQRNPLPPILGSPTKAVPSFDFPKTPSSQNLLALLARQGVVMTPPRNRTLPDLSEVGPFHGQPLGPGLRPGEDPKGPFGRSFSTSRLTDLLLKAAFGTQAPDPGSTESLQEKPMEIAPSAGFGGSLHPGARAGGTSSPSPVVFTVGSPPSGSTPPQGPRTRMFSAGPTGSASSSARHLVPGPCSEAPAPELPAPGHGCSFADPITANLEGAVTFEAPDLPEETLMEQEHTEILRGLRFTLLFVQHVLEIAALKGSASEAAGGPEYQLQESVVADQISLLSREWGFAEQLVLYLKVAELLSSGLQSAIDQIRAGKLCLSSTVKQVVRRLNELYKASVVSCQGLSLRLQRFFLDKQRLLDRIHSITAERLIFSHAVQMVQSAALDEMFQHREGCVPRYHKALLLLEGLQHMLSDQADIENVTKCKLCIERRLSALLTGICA

[8] = biological target: Cyclin-dependent kinase 16 (Homo sapiens) (UniProt Q00536); assay: Inhibition of PCTK1 (unknown origin) assessed as residual activity at 100 nM by KINOMEscan analysis relative to control
Chain of Cyclin-dependent kinase 16 (Homo sapiens) (Q00536 whole entry): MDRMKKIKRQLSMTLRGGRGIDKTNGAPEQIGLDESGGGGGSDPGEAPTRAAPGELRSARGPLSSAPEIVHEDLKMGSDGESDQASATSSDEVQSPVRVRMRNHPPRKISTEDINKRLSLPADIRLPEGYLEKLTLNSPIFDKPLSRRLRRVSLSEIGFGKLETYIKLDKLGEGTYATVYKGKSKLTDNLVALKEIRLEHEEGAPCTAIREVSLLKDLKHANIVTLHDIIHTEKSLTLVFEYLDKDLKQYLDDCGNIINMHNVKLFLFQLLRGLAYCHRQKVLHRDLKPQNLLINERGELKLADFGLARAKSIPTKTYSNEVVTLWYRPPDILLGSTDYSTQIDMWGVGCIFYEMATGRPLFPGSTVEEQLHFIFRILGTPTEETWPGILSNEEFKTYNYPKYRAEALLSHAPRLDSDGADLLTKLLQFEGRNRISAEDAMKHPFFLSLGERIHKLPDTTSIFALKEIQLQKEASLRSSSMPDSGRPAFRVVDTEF

[9] = biological target: ALK tyrosine kinase receptor (Homo sapiens) (UniProt Q9UM73); assay: Inhibition of ALK (unknown origin) assessed as residual activity at 100 nM by KINOMEscan analysis relative to control
Chain of ALK tyrosine kinase receptor (Homo sapiens) (Q9UM73 19-1620 limits assumed): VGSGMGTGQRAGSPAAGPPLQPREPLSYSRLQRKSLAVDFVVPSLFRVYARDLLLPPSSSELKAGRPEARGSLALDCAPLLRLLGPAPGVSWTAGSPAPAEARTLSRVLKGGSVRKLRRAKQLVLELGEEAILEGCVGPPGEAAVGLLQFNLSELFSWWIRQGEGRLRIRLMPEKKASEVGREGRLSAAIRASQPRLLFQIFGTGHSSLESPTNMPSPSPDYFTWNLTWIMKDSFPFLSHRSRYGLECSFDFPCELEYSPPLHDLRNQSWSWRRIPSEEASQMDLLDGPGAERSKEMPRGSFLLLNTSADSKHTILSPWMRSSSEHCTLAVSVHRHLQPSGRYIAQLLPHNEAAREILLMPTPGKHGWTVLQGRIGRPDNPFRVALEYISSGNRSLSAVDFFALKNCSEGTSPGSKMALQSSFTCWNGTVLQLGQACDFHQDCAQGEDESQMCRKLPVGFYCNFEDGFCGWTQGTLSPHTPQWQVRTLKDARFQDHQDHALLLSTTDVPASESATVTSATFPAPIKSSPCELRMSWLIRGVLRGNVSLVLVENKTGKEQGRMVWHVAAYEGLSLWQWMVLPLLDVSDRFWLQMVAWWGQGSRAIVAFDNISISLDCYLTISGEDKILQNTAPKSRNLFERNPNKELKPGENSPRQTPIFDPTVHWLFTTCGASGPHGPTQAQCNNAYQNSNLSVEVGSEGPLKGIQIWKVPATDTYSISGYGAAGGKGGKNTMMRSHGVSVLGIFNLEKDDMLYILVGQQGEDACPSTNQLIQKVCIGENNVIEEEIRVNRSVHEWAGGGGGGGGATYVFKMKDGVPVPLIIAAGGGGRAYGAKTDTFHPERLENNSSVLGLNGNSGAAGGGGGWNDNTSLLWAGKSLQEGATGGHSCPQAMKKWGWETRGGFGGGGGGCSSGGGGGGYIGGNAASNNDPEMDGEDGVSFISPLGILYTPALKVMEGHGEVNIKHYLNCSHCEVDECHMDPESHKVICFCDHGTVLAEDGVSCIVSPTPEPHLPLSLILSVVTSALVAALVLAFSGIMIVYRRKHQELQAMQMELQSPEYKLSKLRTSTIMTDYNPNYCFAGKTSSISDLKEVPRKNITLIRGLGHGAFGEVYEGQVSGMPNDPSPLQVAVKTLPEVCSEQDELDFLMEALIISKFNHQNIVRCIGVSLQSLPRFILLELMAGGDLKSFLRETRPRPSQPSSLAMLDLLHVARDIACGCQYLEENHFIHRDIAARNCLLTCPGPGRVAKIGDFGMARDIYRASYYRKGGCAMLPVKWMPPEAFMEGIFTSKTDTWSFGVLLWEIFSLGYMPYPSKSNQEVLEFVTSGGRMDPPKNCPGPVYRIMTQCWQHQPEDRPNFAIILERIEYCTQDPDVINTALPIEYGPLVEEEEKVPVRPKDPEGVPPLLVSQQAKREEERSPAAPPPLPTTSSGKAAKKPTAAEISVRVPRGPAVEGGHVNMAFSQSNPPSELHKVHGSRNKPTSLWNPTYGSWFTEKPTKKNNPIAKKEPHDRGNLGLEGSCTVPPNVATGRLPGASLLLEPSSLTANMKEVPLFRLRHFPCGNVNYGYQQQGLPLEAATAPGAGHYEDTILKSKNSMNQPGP

[10] = biological target: Testis-specific serine/threonine-protein kinase 3 (Homo sapiens) (UniProt Q96PN8); assay: Inhibition of TSSK3 (unknown origin) assessed as residual activity at 1000 nM by KINOMEscan analysis relative to control
Chain of Testis-specific serine/threonine-protein kinase 3 (Homo sapiens) (Q96PN8 whole entry): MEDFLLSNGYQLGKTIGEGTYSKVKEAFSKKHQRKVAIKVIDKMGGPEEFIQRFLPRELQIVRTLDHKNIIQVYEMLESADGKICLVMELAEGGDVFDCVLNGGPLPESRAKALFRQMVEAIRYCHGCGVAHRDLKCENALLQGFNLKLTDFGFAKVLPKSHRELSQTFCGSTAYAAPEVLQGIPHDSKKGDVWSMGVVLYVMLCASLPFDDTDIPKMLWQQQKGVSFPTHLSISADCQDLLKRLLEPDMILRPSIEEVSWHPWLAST

Structure (SMILES) | Activity [1] | Activity [2] | Activity [3] | Activity [4] | Activity [5] | Activity [6] | Activity [7] | Activity [8] | Activity [9] | Activity [10]
COc1cc2ncnc(N[C@H](C)c3cccc4ccccc34)c2cc1OC | 88% | 68% | 85% | 92% | 65% | 100% | 96% | 96% | 87% | –
COc1cc2nc(C)nc(N[C@H](C)c3cccc(-c4cn[nH]c4)c3)c2cc1OC | – | – | – | – | – | – | – | – | – | 77%
